# Experiments:
# [1] = tested on: K/BxN serum-transfer arthritis (STA) model; assay: K/BxN serum-transfer arthritis (STA) model, arthritic index / clinical score; type: in vivo, C57BL/6 mice; conditions: STA mice; DEX 30 mg/kg gavage daily
# Experimental: (§1) K/BxN serum was collected from K/BxN mice at 8 weeks of age, pooled, aliquoted and stored at -20 °C. K/BxN serum-transfer arthritis (STA) model was induced by intraperitoneal (i.p.) application of 150 μL of serum at day 0. Clinical score for arthritis severity was assessed using a 0–4 point scale for each paw at various time points (0–16 total score) as described previously ([Luo et al., 2011]). 8-week old male C57BL/6 mice were purchased from Dashuo Animal Center (China, Chengdu), maintained at 25°C, and exposed to 12-h light and dark cycles. Mice were fed with standard laboratory chow and water with 1 week of acclimatization. Naive mice were used as the control group. Except the control mice, all mice were i. p. injected with 150 μL of serum, then randomly divided into the following groups and treated with different compounds daily for the consecutive 8 days: 1) STA group; 2) Solvent control group, mice were gavaged with the solvent; 3) Dexamethasone (DEX) group, mice were gavaged with 30 mg/kg DEX; 4) EFL2 group 1, mice were gavaged with 40 mg/kg EFL2; 5) EFL2 group 2, mice were intraperitoneally injected with 15 mg/kg EFL2; 6) EFL2 group 3, […] were intraperitoneally injected with 40 mg/kg EFL2. […] All animal experiments were conducted in accordance with ethical regulation for animal care and use in China.
# [2] = tested on: TNF-α, IL-4, IL-17A, IL-1β and IL-6 in serum; assay: Cytokines in sera of STA mice (CBA Multiplex kit, ELISA); type: in vivo, C57BL/6 mice; conditions: STA mice; DEX 30 mg/kg gavage
# Experimental: as §1
# (§2) IL-4, IL-17A and TNF-α in sera from different group mice were measured using CBA Multiplex kit (BD, United States). The concentrations of IL-1β and IL-6 in serum or supernatant were detected by ELISA Kit (MULTI SCIENCES, China) according to the manufacturers’ instructions.
# [3] = tested on: synovial hyperplasia and articular inflammatory cells infiltration in knee joints; assay: Histological assessment (H&E) of knee joints of STA mice; type: in vivo, C57BL/6 mice; conditions: DEX 30 mg/kg gavage
# Experimental: as §1
# The left knee joints were removed on day 13 post STA and fixed in 4% formaldehyde overnight at 4°C. The tissues were decalcified in EDTA and sectioned after embedding in paraffin. 5 μm sections were deparaffinized with xylene, re-hydrated with 100, 95 and 80% ethanol and then stained with hematoxylin and eosin (H&E). Histopathological changes in the knee joints were measured using a semiquantitative scoring system (0–4 scale) to assess synovial hyperplasia and articular inflammatory cells infiltration as previously described ([Yamanishi et al., 2002]).
# [4] = tested on: TLR7 (R837) / TLR3 (poly:IC) induced cytokine production in RAW264.7 cells; assay: ELISA of IL-1β and IL-6 in supernatant of R837 and/or poly:IC stimulated RAW264.7 cells; type: cell-based, mouse
# Experimental: (§3) RAW264.7 cells (5×10^5/ml), BMDMs (5×10^5/ml) and PBMCs (2×10^6/ml) were plated in 96-well plates and incubated overnight. […] For the anti-inflammatory molecular mechanism study, RAW264.7 cells (5×10^5/ml) were plated in 96-well plates and stimulated with R837 (20 μg/ml) with or without the addition of NF-κB inhibitor (JSH-23, […]) for 24 h. After 24 h, the culture supernatant was collected for cytokines measurements.
# as §2
# [5] = tested on: TLR7-mediated NF-κB signaling pathway (IKKα/β, IκBα, p65); assay: Western blot, NF-κB pathway in R837-stimulated RAW264.7 cells; type: cell-based, mouse; conditions: RAW264.7 cells; R837 alone
# Experimental: (§4) RAW264.7 cells (2×10^6 cells/well) were plated into 6-well plates and then incubated at 37°C in 5% CO2 for 24 h. After incubated with various concentrations of EFL2 (1, 5 and 10 µM) for 1 h, cells were then stimulated by R837 (20 μg/ml) for 30 min. Cell lysates were prepared by direct lysis in 20 µL IP buffer (Beyotime Biotechnology, Shanghai, China). After obtaining the whole cell extracts, the cytosolic and nuclear were seperated using Nuclear and Cytoplasmic Protein Extraction Kit (Beyotime Biotechnology, Shanghai, China). BCA Protein Assay Kit (Beyotime Biotechnology, Nantong, China) was applied to determine the protein concentrations. The bands corresponding to p- IKKα/β, IKKα/β, p-IκBα, IκBα, p-p65, p65, p-IRAK4, IRAK4, p-IKKβ, IKKβ, p-IRF5, IRF5, β-actin and Lamin B were visualized using a Western Blot Detection Chemiluminescence Kit (Merck). Protein extracted from the total lysates/cytoplasm and nucleus was quantified in relation to β-actin and Lamin B bands, respectively.
# (§5) The antibodies used in the experiments were as follows: rabbit anti-mouse IKKα/β polyclonal antibody (1:1,000, Abways, China), rabbit anti-mouse IκBα polyclonal antibody (1:1,000, Abgent, China), rabbit anti-mouse p65 polyclonal antibody (1:1,000, Abgent, China), rabbit anti-mouse phosphorylated IKKα (Ser176)/β (Ser177) (1:1,000, Abways, China), rabbit anti-mouse phosphorylated IκBα (1:1,000, Abcam, United States), rabbit anti-mouse phosphorylated p65 (1:1,000, Abcam, United States), rabbit anti-mouse IRAK4 polyclonal antibody (1:1,000, Proteintech, United States), rabbit anti-mouse phosphorylated IRAK4 (Thr345/Ser346) (1:1,000, Affinity, United States), rabbit anti-mouse IKKβ polyclonal antibody (1:1,000, Abbkine, United States), rabbit anti-mouse phosphorylated IKKβ (Ser177) (1:1,000, Abways, China), rabbit anti-mouse IRF5 polyclonal antibody (1:1,000, Immunoway, United States), rabbit anti-mouse phosphorylated IRF5 (Ser437) (1:1,000, Affinity, United States), anti-mouse actin monoclonal antibody (1:20,000, Transgen, China) and rabbit anti-mouse LaminB monoclonal antibody (1:5,000, Abways, China).
# [6] = tested on: TLR7 (R837) / TLR3 (poly:IC) induced cytokine production in BMDMs; assay: ELISA of IL-1β and IL-6 in supernatant of R837 and/or poly:IC stimulated BMDMs; type: cell-based, C57BL/6 mice
# Experimental: (§6) RAW264.7 cells, a mouse macrophage cell line, were cultured in DMEM medium containing 10% fetal bovine serum (FBS), 1% penicillin-streptomycin and maintained at 37 °C in 5% CO2 humidified air. Bone marrow-derived macrophages (BMDMs) generation was performed as following description. In brief, bone marrow cells were harvested from tibias and femurs of C57BL/6 mice and differentiated for 7 days in DMEM medium supplemented with 10% FBS, 1% penicillin-streptomycin and 50 ng/ml M-CSF. For human peripheral blood mononuclear cells (PBMCs) preparation, 5 ml peripheral venous blood was obtained from healthy donors in West China Hospital. PBMCs were isolated with Human Lymphocyte Separation Medium (LTS1077, Tian Jing, China) according to the manufacturer’s instructions. The experimental protocols were performed according to the approved guidelines established by the Institutional Human Research Subject Protection Committee of the Ethics Committee of West China Hospital, Sichuan University, China.
# as §3, §2
# [7] = tested on: TLR7 (R837) induced cytokine production in PBMCs; assay: ELISA of IL-1β and IL-6 in supernatant of R837 stimulated PBMCs; type: cell-based, human; conditions: PBMCs; R837 alone
# Experimental: as §6
# RAW264.7 cells (5×10^5/ml), BMDMs (5×10^5/ml) and PBMCs (2×10^6/ml) were plated in 96-well plates and incubated overnight. […]
# as §2
# [8] = tested on: P65 and IRF5 translocation; assay: Confocal microscopy of p65 and IRF5 translocation in RAW264.7 cells; type: cell-based, mouse; conditions: R837 alone, immunofluorescence staining
# Experimental: P65 and IRF5 translocation activity was analyzed by confocal microscopy. Briefly, 1×10^5 RAW264.7 cells were plated on coverslips overnight. Cells were pretreated with various concentrations of EFL2 (1, 5 and 10 µM) for 1 h and then stimulated by R837 (20 μg/ml) for 30 min. After washed with ice-cold PBS, RAW264.7 cells were fixed with 4% paraformaldehyde for 20 min at room temperature. The coverslips were washed with PBS with 0.2% tween 20 and blocked with 5% goat serum. Primary antibodies were applied to coverslips overnight at 4°C, followed by secondary antibodies incubation for 1 h at room temperature. After three times wash, coverslips were mounted with Fluoroshield™ with DAPI (Solarbio, China) and images were acquired by confocal microscopy (ZEISS, Germany). Primary antibody: rabbit anti-mouse IRF5 (1:800, Abcam, China); rabbit anti-mouse p65 (1:1,000, Abcam, China). Secondary antibody: Alexa eFluor®488 conjugated goat anti-rabbit IgG (1:2000, Thermo Fisher Scientific, Carlsbad, United States).
# [9] = tested on: TLR7-mediated IRAK4/IKKβ/IRF5 signaling pathway; assay: Western blot, IRAK4/IKKβ/IRF5 in R837-stimulated RAW264.7 cells; type: cell-based, mouse; conditions: RAW264.7 cells; R837 alone
# Experimental: as §4, §5
# [10] = RAW 264.7 cells, JSH-23 10 μM, 24 h
molecule,measurement,setting,value
"C[C@@H]1C[C@H]2[C@@H]3CCC4=CC(=O)C=C[C@]4(C)[C@@]3(F)[C@@H](O)C[C@]2(C)[C@@]1(O)C(=O)CO [DEX, Dexamethasone, reference compound]",arthritis clinical scores,[1],significantly lowered
same,IL-1β level in sera,[2],significantly reduced
same,IL-6 level in sera,[2],significantly reduced
same,inflammatory status and inflamed synovium in joints,[3],significantly inhibited
Cc1ccc(NCCCc2ccccc2)c(N)c1 [JSH-23],R837-induced IL-1β production,[4]; [10],"to a large extent, blocked"
same,R837-induced IL-6 secretion,[4]; [10],only partially reduced
"CC(C)Cn1cnc2c(N)nc3ccccc3c21 [R837, imiquimod, reference compound]",IL-1β and IL-6 release in the supernatant,"[4]; RAW264.7 cells, R837 alone (20 μg/ml)",robustly induced
same,phosphorylation of IKKα/β and IκB-α,[5],rapidly occurs
same,IL-1β and IL-6 release in the supernatant,"[6]; BMDMs, R837 alone (20 μg/ml)",robustly induced
same,IL-1β and IL-6 release in the supernatant,[7],robustly induced
same,IRF5 translocation from cytoplasm to nucleus,[8],dramatically induced
same,phosphorylation of IRAK4 and IKKβ,[9],rapidly triggered
poly (I:C) [reference compound],IL-1β and IL-6 production,"[4]; R837-stimulated RAW264.7 cells, addition of poly (I:C)",did enhance
same,IL-1β and IL-6 secretion,"[4]; RAW264.7 cells, poly (I:C) alone (1 μg/ml)",significantly increased
same,IL-1β and IL-6 production,"[6]; BMDMs, poly (I:C) alone (1 μg/ml)",did not affect
same,IL-1β and IL-6 production,"[6]; R837-stimulated BMDMs, addition of poly (I:C)",did enhance

# From article PMC8691750, “Euphorbia Factor L2 ameliorates the Progression of K/BxN Serum-Induced Arthritis by Blocking TLR7 Mediated IRAK4/IKKβ/IRF5 and NF-kB Signaling Pathways” (Frontiers in Pharmacology, 2021)
